Results: ChEMBL document CHEMBL1148029, “Synthesis and radiopharmacological characterization of 2beta-carbo-2'-[18F]fluoroethoxy-3beta-(4-bromo-phenyl)tropane ([18F]MCL-322) as a PET radiotracer for imaging the dopamine transporter (DAT)” (Bioorg Med Chem, 2007)

Experiments:
Muscle tissue [1] = assay: Biodistribution in Wistar rat muscle at 300 uCi, iv after 20 mins; format: ADME, organism-based; conditions: in vivo
Muscle tissue [2] = assay: Biodistribution in Wistar rat muscle at 300 uCi, iv after 60 mins; format: ADME, organism-based; conditions: in vivo, 1 h
Muscle tissue [3] = assay: Biodistribution in Wistar rat muscle at 300 uCi, iv after 240 mins; format: ADME, organism-based; conditions: in vivo, 4 h
Heart [4] = assay: Biodistribution in Wistar rat heart at 300 uCi, iv after 5 mins; format: ADME, organism-based; conditions: in vivo
Heart [5] = assay: Biodistribution in Wistar rat heart at 300 uCi, iv after 60 mins; format: ADME, organism-based; conditions: in vivo, 1 h
Lung [6] = assay: Biodistribution in Wistar rat lung at 300 uCi, iv after 5 mins; format: ADME, organism-based; conditions: in vivo
Cortex [7] = assay: Biodistribution in Wistar rat cortex at 300 uCi, iv after 60 mins in presence of nisoxetine; format: ADME, organism-based; conditions: in vivo, 1 h
Cerebellum [8] = assay: Biodistribution in Wistar rat cerebellum at 300 uCi, iv after 60 mins in presence of nisoxetine; format: ADME, organism-based; conditions: in vivo, 1 h
Hippocampus [9] = assay: Biodistribution in Wistar rat hippocampus at 300 uCi, iv after 60 mins in presence of citalopram; format: ADME, organism-based; conditions: in vivo, 1 h
Testes [10] = assay: Biodistribution in Wistar rat testes at 300 uCi, iv after 5 mins; format: ADME, organism-based, Testis; conditions: in vivo
Liver [11] = assay: Biodistribution in Wistar rat liver at 300 uCi, iv after 5 mins; format: ADME, organism-based; conditions: in vivo
[12] = Biodistribution in Wistar rat brown fat at 300 uCi, iv after 5 mins; format: ADME, organism-based, Brown adipose tissue; conditions: in vivo
[13] = Biodistribution in Wistar rat brown fat at 300 uCi, iv after 20 mins; format: ADME, organism-based, Brown adipose tissue; conditions: in vivo
[14] = Biodistribution in Wistar rat hair and skin at 300 uCi, iv after 20 mins; format: ADME, organism-based; conditions: in vivo
[15] = Biodistribution in Wistar rat hair and skin at 300 uCi, iv after 120 mins; format: ADME, organism-based; conditions: in vivo, 2 h
[16] = Biodistribution in Wistar rat hair and skin at 300 uCi, iv after 240 mins; format: ADME, organism-based; conditions: in vivo, 4 h
Pancreas [17] = assay: Biodistribution in Wistar rat pancreas at 300 uCi, iv after 60 mins; format: ADME, organism-based; conditions: in vivo, 1 h
Pancreas [18] = assay: Biodistribution in Wistar rat pancreas at 300 uCi, iv after 120 mins; format: ADME, organism-based; conditions: in vivo, 2 h
Spleen [19] = assay: Biodistribution in Wistar rat spleen at 300 uCi, iv after 5 mins; format: ADME, organism-based; conditions: in vivo
Spleen [20] = assay: Biodistribution in Wistar rat spleen at 300 uCi, iv after 20 mins; format: ADME, organism-based; conditions: in vivo
Spleen [21] = assay: Biodistribution in Wistar rat spleen at 300 uCi, iv after 60 mins; format: ADME, organism-based; conditions: in vivo, 1 h
Spleen [22] = assay: Biodistribution in Wistar rat spleen at 300 uCi, iv after 120 mins; format: ADME, organism-based; conditions: in vivo, 2 h
Adrenal [23] = assay: Biodistribution in Wistar rat adrenal gland at 300 uCi, iv after 5 mins; format: ADME, organism-based, Adrenal tissue; conditions: in vivo
Adrenal [24] = assay: Biodistribution in Wistar rat adrenal gland at 300 uCi, iv after 60 mins; format: ADME, organism-based, Adrenal tissue; conditions: in vivo, 1 h
Adrenal [25] = assay: Biodistribution in Wistar rat adrenal gland at 300 uCi, iv after 240 mins; format: ADME, organism-based, Adrenal tissue; conditions: in vivo, 4 h
[26] = Biodistribution in Wistar rat fat at 300 uCi, iv after 60 mins; format: ADME, organism-based, Adipose tissue; conditions: in vivo, 1 h
[27] = Biodistribution in Wistar rat fat at 300 uCi, iv after 240 mins; format: ADME, organism-based, Adipose tissue; conditions: in vivo, 4 h
Lung [28] = assay: Biodistribution in Wistar rat lung at 300 uCi, iv after 20 mins; format: ADME, organism-based; conditions: in vivo
Thymus [29] = assay: Biodistribution in Wistar rat thymus at 300 uCi, iv after 5 mins; format: ADME, organism-based; conditions: in vivo
Thymus [30] = assay: Biodistribution in Wistar rat thymus at 300 uCi, iv after 120 mins; format: ADME, organism-based; conditions: in vivo, 2 h
Harderian gland [31] = assay: Biodistribution in Wistar rat harderian glands at 300 uCi, iv after 5 mins; format: ADME, organism-based; conditions: in vivo
Harderian gland [32] = assay: Biodistribution in Wistar rat harderian glands at 300 uCi, iv after 20 mins; format: ADME, organism-based; conditions: in vivo
Harderian gland [33] = assay: Biodistribution in Wistar rat harderian glands at 300 uCi, iv after 60 mins; format: ADME, organism-based; conditions: in vivo, 1 h
Harderian gland [34] = assay: Biodistribution in Wistar rat harderian glands at 300 uCi, iv after 240 mins; format: ADME, organism-based; conditions: in vivo, 4 h
Liver [35] = assay: Biodistribution in Wistar rat liver at 300 uCi, iv after 20 mins; format: ADME, organism-based; conditions: in vivo
Femur [36] = assay: Biodistribution in Wistar rat femur at 300 uCi, iv after 20 mins; format: ADME, organism-based; conditions: in vivo
Femur [37] = assay: Biodistribution in Wistar rat femur at 300 uCi, iv after 240 mins; format: ADME, organism-based; conditions: in vivo, 4 h
[38] = Biodistribution in Wistar rat rest of brain at 300 uCi, iv after 5 mins; format: ADME, organism-based; conditions: in vivo
Striatum [39] = assay: Biodistribution in Wistar rat striatum at 300 uCi, iv after 20 mins; format: ADME, organism-based; conditions: in vivo
Striatum [40] = assay: Biodistribution in Wistar rat striatum at 300 uCi, iv after 60 mins; format: ADME, organism-based; conditions: in vivo, 1 h
Cerebellum [41] = assay: Biodistribution in Wistar rat cerebellum at 300 uCi, iv after 60 mins; format: ADME, organism-based; conditions: in vivo, 1 h
Cerebellum [42] = assay: Biodistribution in Wistar rat cerebellum at 300 uCi, iv after 120 mins; format: ADME, organism-based; conditions: in vivo, 2 h
Cerebellum [43] = assay: Biodistribution in Wistar rat cerebellum at 300 uCi, iv after 240 mins; format: ADME, organism-based; conditions: in vivo, 4 h
Hippocampus [44] = assay: Biodistribution in Wistar rat hippocampus at 300 uCi, iv after 120 mins; format: ADME, organism-based; conditions: in vivo, 2 h
[45] = Biodistribution in Wistar rat rest of brain at 300 uCi, iv after 60 mins; format: ADME, organism-based; conditions: in vivo, 1 h
[46] = Biodistribution in Wistar rat rest of brain at 300 uCi, iv after 240 mins; format: ADME, organism-based; conditions: in vivo, 4 h
Cortex [47] = assay: Biodistribution in Wistar rat cortex at 300 uCi, iv after 5 mins; format: ADME, organism-based; conditions: in vivo
Blood = assay: Biodistribution in Wistar rat blood at 300 uCi, iv after 60 mins in presence of citalopram; format: ADME, organism-based; conditions: in vivo, 1 h
Striatum [48] = assay: Biodistribution in Wistar rat striatum at 300 uCi, iv after 60 mins in presence of citalopram; format: ADME, organism-based; conditions: in vivo, 1 h
Striatum [49] = assay: Biodistribution in Wistar rat striatum at 300 uCi, iv after 60 mins in presence of nisoxetine; format: ADME, organism-based; conditions: in vivo, 1 h
Cortex [50] = assay: Biodistribution in Wistar rat cortex at 300 uCi, iv after 60 mins in presence of GBR-12909; format: ADME, organism-based; conditions: in vivo, 1 h
Brain = assay: Biodistribution in Wistar rat rest of brain at 300 uCi, iv after 60 mins in presence of nisoxetine; format: ADME, organism-based; conditions: in vivo, 1 h
Cortex [51] = assay: Biodistribution in Wistar rat cortex at 300 uCi, iv after 60 mins; format: ADME, organism-based; conditions: in vivo, 1 h
Testes [52] = assay: Biodistribution in Wistar rat testes at 300 uCi, iv after 20 mins; format: ADME, organism-based, Testis; conditions: in vivo
Testes [53] = assay: Biodistribution in Wistar rat testes at 300 uCi, iv after 120 mins; format: ADME, organism-based, Testis; conditions: in vivo, 2 h
Plasma [54] = assay: Metabolic stability in Wistar rat plasma assessed as polar metabolite level at 1 mCi, iv after 1.5 mins; format: ADME, organism-based; conditions: in vivo, 0.025 h
Plasma [55] = assay: Metabolic stability in Wistar rat plasma assessed as polar metabolite level at 1 mCi, iv after 10 mins; format: ADME, organism-based; conditions: in vivo
Plasma [56] = assay: Metabolic stability in Wistar rat plasma assessed as polar metabolite level at 1 mCi, iv after 30 mins; format: ADME, organism-based; conditions: in vivo, 0.5 h
Plasma [57] = assay: Metabolic stability in Wistar rat plasma assessed as polar metabolite level at 1 mCi, iv after 240 mins; format: ADME, organism-based; conditions: in vivo, 4 h
[58] = Metabolic stability in Wistar rat striatum at 1 mCi, iv after 60 mins; format: ADME, organism-based; conditions: read-out: Stability

## CN1C2CCC1C(C(=O)OCC[18F])C(c1ccc(Br)cc1)C2 (stereo not given)
Muscle tissue [1]
  Drug uptake: 0.33 % ID/g
Muscle tissue [2]
  Drug uptake: 0.16 % ID/g
Muscle tissue [3]
  Drug uptake: 0.04 % ID/g
Heart [4]
  Drug uptake: 1.09 % ID/g
Heart [5]
  Drug uptake: 0.21 % ID/g
Lung [6]
  Drug uptake: 6.53 % ID/g
Cortex [7]
  Drug uptake: 0.96 % ID/g
Cerebellum [8]
  Drug uptake: 0.63 % ID/g
Hippocampus [9]
  Drug uptake: 1.36 % ID/g
Testes [10]
  Drug uptake: 0.33 % ID/g
Liver [11]
  Drug uptake: 3.2 % ID/g
[12]
  Drug uptake: 1.46 % ID/g
[13]
  Drug uptake: 0.78 % ID/g
[14]
  Drug uptake: 0.47 % ID/g
[15]
  Drug uptake: 0.17 % ID/g
[16]
  Drug uptake: 0.08 % ID/g
Pancreas [17]
  Drug uptake: 0.54 % ID/g
Pancreas [18]
  Drug uptake: 0.29 % ID/g
Spleen [19]
  Drug uptake: 1.51 % ID/g
Spleen [20]
  Drug uptake: 1.41 % ID/g
Spleen [21]
  Drug uptake: 0.58 % ID/g
Spleen [22]
  Drug uptake: 0.29 % ID/g
Adrenal [23]
  Drug uptake: 3.57 % ID/g
Adrenal [24]
  Drug uptake: 0.58 % ID/g
Adrenal [25]
  Drug uptake: 0.17 % ID/g
[26]
  Drug uptake: 0.27 % ID/g
[27]
  Drug uptake: 0.06 % ID/g
Lung [28]
  Drug uptake: 2.58 % ID/g
Thymus [29]
  Drug uptake: 0.89 % ID/g
Thymus [30]
  Drug uptake: 0.21 % ID/g
Harderian gland [31]
  Drug uptake: 1.46 % ID/g
Harderian gland [32]
  Drug uptake: 2.04 % ID/g
Harderian gland [33]
  Drug uptake: 2.37 % ID/g
Harderian gland [34]
  Drug uptake: 0.93 % ID/g
Liver [35]
  Drug uptake: 6.8 % ID/g
Femur [36]
  Drug uptake: 0.42 % ID/g
Femur [37]
  Drug uptake: 0.07 % ID/g
[38]
  Drug uptake: 2.53 % ID/g
Striatum [39]
  Drug uptake: 3.93 % ID/g
Striatum [40]
  Drug uptake: 3.71 % ID/g
Cerebellum [41]
  Drug uptake: 0.56 % ID/g
Cerebellum [42]
  Drug uptake: 0.24 % ID/g
Cerebellum [43]
  Drug uptake: 0.09 % ID/g
Hippocampus [44]
  Drug uptake: 0.42 % ID/g
[45]
  Drug uptake: 1.1 % ID/g
[46]
  Drug uptake: 0.27 % ID/g
Cortex [47]
  Drug uptake: 3.19 % ID/g
Blood
  Drug uptake: 0.052 % ID/g
Striatum [48]
  Drug uptake: 6.43 % ID/g
Striatum [49]
  Drug uptake: 4.18 % ID/g
Cortex [50]
  Drug uptake: 0.94 % ID/g
Brain
  Drug uptake: 1.23 % ID/g
Cortex [51]
  Drug uptake: 1 % ID/g
Testes [52]
  Drug uptake: 0.45 % ID/g
Testes [53]
  Drug uptake: 0.39 % ID/g
Plasma [54]
  Stability: 21%
Plasma [55]
  Stability: 61%
Plasma [56]
  Stability: 76%
Plasma [57]
  Stability: > 98%
[58]
  remaining at 1 h: > 90%
